Where a SMILES comes first, the peptide text is derived from it. Where no end group is shown, it is not given here. [ ]: non-standard residue; d: D form.
How the values were obtained:
[1] = tested on: Mtb-secreted proteases (mc^2 6230 supernatant); details: proteolytic Mtb (mc^2 6230) supernatant, two weeks (0, 1, 7, 14 d), HPLC; n = 3 technical replicates
[2] = Human serum proteolytic stability; format: in vitro ADME; details: observed during serum proteolysis experiments, 25% v/v human serum
[3] = tested on: hypoxia-induced NRP Mtb H37Ra; format: cell-based, M. tuberculosis
[4] = tested on: proliferating Mtb (H37Rv) cultures
[5] = tested on: nutrient-starved NRP Mtb H37Rv; assay: Kill curves with nutrient-starved non-replicating Mtb; format: cell-based, M. tuberculosis

Compound	Stability in the presence of Mtb-secreted proteases [1]	binding to human serum proteins [2]	activity under hypoxic conditions [3]	incubation time at which regrowth of treated Mtb cultures was permitted [4] [days]	reduction in the first week of exposure [4]	activity under nutrient starvation conditions [5]
KRWHWWRRHWVVW-NH2 [MAD1]	completely proteolyzed after 14 days					
CC(C)[C@@H](NC(=O)[C@H](N)Cc1c[nH]c2ccccc12)C(=O)N[C@@H](C(=O)N[C@H](Cc1c[nH]c2ccccc12)C(=O)N[C@H](Cc1c[nH]cn1)C(=O)N[C@H](CCCNC(=N)N)C(=O)N[C@H](CCCNC(=N)N)C(=O)N[C@H](Cc1c[nH]c2ccccc12)C(=O)N[C@H](Cc1c[nH]c2ccccc12)C(=O)N[C@H](Cc1c[nH]cn1)C(=O)N[C@H](Cc1c[nH]c2ccccc12)C(=O)N[C@H](CCCNC(=N)N)C(=O)N[C@H](CCCCN)C(N)=O)C(C)C [MAD1-RI] (H-[dW][dV][dV][dW][dH][dR][dR][dW][dW][dH][dW][dR][dK]-NH2)	generally remained stable up to two weeks	significant binding				
NNC(=O)c1ccncc1 [INH, isoniazid, reference compound]			inactive	3	~ 2 log	inactive
